Experimental data published in patent US6710018B2, “Compositions containing a dicarboxylic acid diester and a post-emergent herbicide and a method of using the same” (Falcon Lab LLC, priority 2002, dated 2004).

Experiments:
Type in all cases: in vivo
Velvetleaf = experiment: Example 4: container-grown velvetleaf, backpack sprayer, necrosis and control; settings: for % Necrosis After 1 Day / % Control 5 Days / % Control 9 Days / % Control 21 Days: velvetleaf, chlorimuron 0.31 lb.ai/A, dimethyl azelate 1.5 % W/W, 12 gal/A spray
Method: Chlorimuron is a sulfonylurea-type postemergence herbicide, sold by duPont under the trade name “Classic”. Dimethyl azelate (80% technical grade with 20% emulsifier) was added with the dilute herbicidal spray solution to determine if the rapidity and effectiveness of weed control was improved. A single nozzle flat fan wand backpack sprayer with C02 propellant calibrated for 12 gal/A spray volume was used to apply the treatments with a handheld wand applicator and constant walking speed. Velvetleaf plants of 6 to 8 inch height with 3 plants per 16 fl oz container in soil-less media were treated with the mixtures shown in the table below. Each treatment was applied to 3 containers to provide 3 replications per treatment. The dilute spray solutions were agitated during application. The effects of the treatment were observed daily for 21 days with the following results: […]

[1] = system: Mugwort (Artemisia vulgaris L.); experiment: Example 3: container-grown mugwort, spray treatment, necrosis and control; settings: DMA 1.5 % W/W, 40 gal/A spray; for % Necrosis Day 1: Day 1, glyphosate 0.5 % W/W; for % Necrosis Day 3: Day 3, glyphosate 0.5 % W/W; for % Control Day 9: Day 9, glyphosate 0.5 % W/W; for % Control Day 12: Day 12, glyphosate 0.5 % W/W; for % Control Day 15: Day 15, glyphosate 0.5 % W/W; for % Control Day 19: Day 19, glyphosate 0.5 % W/W
Method: Mugwort (Artemisia vulgaris L.) rhizomes 2 to 3 inches in length were collected from established plants and planted into soil-less media in 16 fl. oz. size containers. Each container was a replicate and contained one plant. On Day 0, 14 to 18 inch height single stem plants of mugwort were treated with the solutions shown in Table 1 with calibrated hand pump sprayers with constant agitation. Each plant was sprayed with 14 hand pumps for a nominal 40 gal/A spray volume application. Treatments were irrigated and fertilized as needed.

[2] = system: Momingglory, pitted (Ipomoea lacunosa L.); experiment: Example 5: potted pitted morningglory, spray treatment, epinasty and control; settings: DMA 2.0 % W/W, 12 gpa spray
Method: Momingglory, pitted (Ipomoea lacunosa L.) was seeded into soil-less media in 16 fl oz plastic pots with 3 plants established per pot. Each pot was a replication. When the morningglory plants had two true leaves, control treatments were applied by 2 manual hand pumps from a calibrated hand-pump sprayer. The spray application was a nominal 12 gpa spray volume. The Day 0 treatments were applied as 2 replications with constant agitation of the dilute spray solution. Treatments were evaluated for a 21 day interval after application as follows: […]

Rye (Secale cereale L) = experiment: Example 6 Study 1: container-grown rye, spray treatment, necrosis and control; settings: sethoxydin 0.01 % W/W, dimethyl azelate 3 % W/W, 25 gal/Acre spray; for % Necrosis After 3 Day: 3 days
Method: Rye (Secale cereale L) was grown in 16 fl. oz. containers in soil less media until 4 inches in height and then treated with the herbicidal compositions shown in Table 1 by spraying the herbicidal compositions with 4 pumps of a calibrated hand pump sprayer. The spray volume delivered was 25 gal/Acre. The containers contained approximately 12 rye plants per pot and each container was one replication. Treatments were in full sun with no wind. The effects of the treatments were observed over 3 weeks with the following results recorded: Sethoxydin, a cyclohexadione class herbicide, was obtained from BASF Corp. as “Poast”. The dimethyl azelate was a technical grade obtained from Cognis Corp.

corn (Zea mays L.) = experiment: Example 6 Study 2: potted corn, spray treatment, necrosis and control; settings: sethoxydin 0.01 % W/W, dimethyl azelate 3 % W/W, 13 gal/A spray; for % Necrosis After 3 Day: 3 days
Method: Rye (Secale cereale L) was grown in 16 fl. oz. containers in soil less media until 4 inches in height and then treated with the herbicidal compositions shown in Table 1 by spraying the herbicidal compositions with 4 pumps of a calibrated hand pump sprayer. The spray volume delivered was 25 gal/Acre. The containers contained approximately 12 rye plants per pot and each container was one replication. Treatments were in full sun with no wind. The effects of the treatments were observed over 3 weeks with the following results recorded: Sethoxydin, a cyclohexadione class herbicide, was obtained from BASF Corp. as “Poast”. The dimethyl azelate was a technical grade obtained from Cognis Corp. Another identical study was conducted with corn (Zea mays L.) with 3 plants per pot and 2 replications. The treatments were applied as 2 pumps per pot for a 13 gal/A spray volume to 6 inch height corn plants.

a variety of weeds = experiment: Example 1: whole plot, summary of visual effect in words; settings: Example 1 plot; after one day
Method: A quart of glyphosate herbicide was prepared using the label recommendations of the manufacturer (Monsanto) by adding 18 ml. (0.625 liq. oz.) of “Roundup® Super Concentrate” (41% isopropyl glyphosate), to water and bringing the final solution to 32 oz. liquid (Sol. A). To another 18 ml. of “Roundup Concentrate” was added 18 ml. of dimethyl azelate and this mixture diluted with water to 32 liq. oz. (Sol. B). Thus, each solution contained the same amount of glyphosate while Sol. B also contained 2% dimethyl azelate.
Sol. A was applied with a hand sprayer on a 2 ft. by 3 ft. plot of ground containing a variety of weeds. Sol. B was applied in the same manner on a similar adjacent plot containing the same variety of weeds. The temperature was in the mid-80's (° F.) during the test period with no rain.
The test plots were observed daily.

target weed = experiment: General observations on time to necrosis or kill of weeds

Row | Compound | % Necrosis After 1 Day (Velvetleaf) | % Control 5 Days (Velvetleaf) | % Control 9 Days (Velvetleaf) | % Control 21 Days (Velvetleaf) | % Necrosis Day 1 [1] | % Necrosis Day 3 [1] | % Control Day 9 [1] | % Control Day 12 [1] | % Control Day 15 [1] | % Control Day 19 [1] | % Necrosis After 1 Day (Rye (Secale cereale L)) | % Necrosis After 3 Day (Rye (Secale cereale L)) | % Control 5 Days (Rye (Secale cereale L)) | % Control 9 Days (Rye (Secale cereale L)) | % Control 21 Days (Rye (Secale cereale L)) | % Necrosis After 1 Day (corn (Zea mays L.)) | % Necrosis After 3 Day (corn (Zea mays L.)) | % Control 5 Days (corn (Zea mays L.)) | % Control 9 Days (corn (Zea mays L.)) | % Control 21 Days (corn (Zea mays L.)) | other results
1 | COc1cc(Cl)nc(NC(=O)NS(=O)(=O)c2ccccc2C(=O)O)n1 [Chlorimuron] | 0% | 48% | 53% | 23% | – | – | – | – | – | – | – | – | – | – | – | – | – | – | – | – | –
2 | COC(=O)CCCCCCCC(=O)OC [DMA, Dimethyl azelate] | 0% | 0% | 0% | 0% | 49% | 53% | 33% | 21% | 18% | 13% | 13% | 15% | 8% | 0% | 0% | 18% | 15% | 13% | 0% | 0% | response of velvetleaf, in words (Velvetleaf; dimethyl azelate alone, 1.5 % W/W): tolerant; % Epinasty Day 5 (leaf distortion and downward twisting) ([2]; Day 5, 2,4-D ester 0.3 % W/W): 5%; % Control Day 7 ([2]; Day 7, 2,4-D ester 0.3 % W/W): 3%; % Control Day 10 ([2]; Day 10, 2,4-D ester 0.3 % W/W): 0%; % Control Day 14 ([2]; Day 14, 2,4-D ester 0.3 % W/W): 0%; % Control Day 21 ([2]; Day 21, 2,4-D ester 0.3 % W/W): 0%
3 | O=C(O)CNCP(=O)(O)O [Glyphosate] | – | – | – | – | 0% | 0% | 53% | 100% | 100% | 100% | – | – | – | – | – | – | – | – | – | – | visual effect on the weeds of the plot, in words (a variety of weeds): unaffected; time for weed and grass necrosis to approach 100% (target weed; without the addition of dimethyl azelate): 3 to 4 days; minimal necrosis times (target weed; without the diester): three to four
4 | CCC/C(=N\OCC)C1=C(O)CC(CC(C)SCC)CC1=O (stereo not shown) [Sethoxydin] | – | – | – | – | – | – | – | – | – | – | 0% | 3% | 24% | 79% | 94% | 0% | 3% | 10% | 40% | 88% | –
